Where two headings read alike, the source gives them in different places.
Columns and labels:
[1] = Plasma free fraction (fu) and unbound Cmax (Cmax,u); type: in vitro ADME, human; conditions: unbound plasma Cmax
Procedure: The prediction of DILI severity was evaluated further using the 3D combined HCI assays using plasma-free fraction. The majority of fu values were obtained from literature, when unavailable in-house prediction was utilised. Unbound plasma Cmax concentrations (Cmax,u) were derived by multiplying total plasma Cmax with the corresponding free fraction (fu) for each compound.

HepG2 = tested on: HepG2; set-up: method as in Albrecht 2019; conditions: In vitro Assay; ref Albrecht 2019; cited from earlier work
[2] = cited from earlier work
[3] = tested on: primary human hepatocytes, NIH3T3 fibroblasts, BSEP, CYP3A4; conditions: cited from earlier work
HepG2 cells [4] = conditions: cited from earlier work
HepG2 cells [5] = conditions: cited from earlier work; remark: listed apart in the source
human hepatocytes = conditions: cited from earlier work
[6] = tested on: THLE or HepG2 cells, isolated mitochondria, BSEP; conditions: cited from earlier work
PHH [7] = conditions: cited from earlier work
hLiMTs [8] = conditions: cited from earlier work
PHH spheroids = conditions: In vitro Assay; ref Vorrink 2018; cited from earlier work
[9] = tested on: HepG2 C3A spheroid, BSEP, Glu/Gal in HepG2 cells, bioactivation; conditions: cited from earlier work
[10] = read-out: Human plasma Cmax; total plasma Cmax.tot, median of 9 literature references; cited from earlier work
[11] = plasma free fraction; cited from earlier work
[12] = cited from earlier work; remark: listed apart in the source
PHH [13] = conditions: In vitro Assay; ref Albrecht 2019; cited from earlier work
[14] = tested on: THLE-Null and THLE-3A4 cells; conditions: In vitro Assay; ref Gustafsson 2014; cited from earlier work
[15] = tested on: HepG2 cells, primary human hepatocytes; conditions: In vitro Assay; ref Garside 2014; cited from earlier work
[16] = tested on: isolated mouse liver mitochondria; conditions: In vitro Assay; ref Porceddu 2012; cited from earlier work
rBsep = conditions: In vitro Assay; ref Dawson 2012; cited from earlier work
hLiMTs [17] = test: Combined HCI (HCS) and cellular ATP 3D assay in hLiMTs; conditions: for AC50 / minimal effective concentration: Homo sapiens
HepaRG spheroids = test: Combined HCI (HCS) and cellular ATP 3D assay in HepaRG spheroids; conditions: for AC50 / minimal effective concentration: Homo sapiens
[18] = In vitro Assay, ref Schadt 2015
[19] = In vitro Assay, ref Persson 2013
[20] = Modeled in vitro assays (cytotoxicity, mitochondrial dysfunction, BSEP), ref Aleo et al. 2019
[21] = In vitro Assay, ref Proctor 2017
[22] = Microtissue model structural based (HCI), combined HCS and ATP, MEC < 25 × Cmax.tot cut-off

For Cc1c(C)c2c(c(C)c1O)CCC(C)(COc1ccc(CC3SC(=O)NC3=O)cc1)O2 (stereo not drawn) [troglitazone, reference compound], the “Human plasma Cmax,u” value [1] is listed as 0.064 µM, the “Cytotoxicity HepG2 48 hrs” value (HepG2) is listed as “+VE” and the “DILI severity category (Chen et al. [2016])” value ([2]; LTKB DILIrank category, ref Chen et al. 2016) is listed as “Most”. The “DILI severity category (Chen 2016)” value ([2]; human DILI classification, LTKB DILIrank, ref Chen et al. 2016) was “Most”, the DILI severity category ([2]; human DILI severity, ref Chen et al.) was “Most” and the “DILI +VE (5-8), DILI -VE (-4)” value ([2]; ref Chen 2016) was “+VE”. For the same compound, the DILI severity category ([2]; ref Chen 2016) was “vMost-DILI-Concern”, the “DILI in vitro assay prediction, Schadt (2015)” value ([3]; BSEP & Metabolism based, ref Schadt et al. 2015) was “+VE” and the “Cellular toxicity (3T3 cells)” value [3, 18] was “+VE”. For the same compound, the “Combined Assay” value [3, 18] was “+VE”, the “GSH adduct HML” value [3, 18] was “+VE” and the Hepatocyte cellular toxicity [3, 18] was “+VE”. For the same compound, the “MitoTox 3T3” value [3, 18] was “-VE”, the “TDI CYP3A4” value [3, 18] was “+VE” and the hBSEP inhibition [3, 18] was “+VE”. The Cluser analysis (HepG2 cells [4]; [19]) was “+VE”, the “Structural based (HCI)” value (HepG2 cells [4]; [19]) was “+VE” and the “DILI in vitro assay prediction, Persson (2013)” value (HepG2 cells [4]; Structural based (HCI), HepG2, ref Persson et al. 2013) was “+VE”. For the same compound, the “Structural based (HCI)” value (HepG2 cells [5]; In vitro Assay, ref Tolosa 2012) was “+VE”, the “DILI in vitro assay prediction, Tolosa (2012)” value (HepG2 cells [5]; Structural based (HCI), HepG2, ref Tolosa et al. 2012) was “+VE” and the “Structural based (HCI)” value (human hepatocytes; In vitro Assay, ref Xu 2008) was “+VE”. For the same compound, the “DILI in vitro assay prediction, Xu (2008)” value (human hepatocytes; Structural based (HCI), human hepatocytes, ref Xu et al. 2008) was “+VE”, the “Partition Hybrid HRM Score” value ([6]; In vitro Assay, ref Aleo 2019) was “+VE” and the “Ro2 Hybrid HRM Score” value ([6]; In vitro Assay, ref Aleo 2019) was “+VE”. For the same compound, the “Partition Hybrid HRM Score ≥4, Aleo (2019)” value [6, 20] was “+VE (Partition Hybrid HRM Score ≥4)”, the “Partition Hybrid HRM Score ≥8, Aleo (2019)” value [6, 20] was “+VE (Partition Hybrid HRM Score ≥8)” and the “Rule of Two hybrid HRM Score ≥3, Aleo (2019)” value [6, 20] was “+VE (Rule of Two hybrid HRM Score ≥3)”. The “Rule of Two hybrid HRM Score ≥8, Aleo (2019)” value [6, 20] was “+VE (Rule of Two hybrid HRM Score ≥8)”, the “PHH/100xCmax, Proctor (2017)” value (PHH [7]; 2D PHH, ATP, IC50 < 100 × Cmax.tot, ref Proctor et al. 2017) was “-VE” and the “PHH/100uM, Proctor (2017)” value (PHH [7]; 2D PHH, ATP, IC50 threshold 100 µM, ref Proctor et al. 2017) was “-VE”. The “PHH ATP <100uM” value (PHH [7]; [21]) was “-VE”, the “hLiMTs ATP <100uM” value (hLiMTs [8]; [21]) was “+VE (IC50 threshold of 100 µM)” and the “hLiMTs/100xCmax, Proctor (2017)” value (hLiMTs [8]; hLiMTs, ATP, IC50 < 100 × Cmax.tot, ref Proctor et al. 2017) was “+VE (IC50 < 100 × Cmax.tot)”. The “hLiMTs/100uM, Proctor (2017)” value (hLiMTs [8]; hLiMTs, ATP, IC50 threshold 100 µM, ref Proctor et al. 2017) was “+VE (IC50 threshold of 100 µM)”, the “hLiMTs ATP <20 x Cmax” value (PHH spheroids) was “+VE (IC20 < 20 × Cmax.tot cut-off)” and the “Bayesian Machine Learning DILI prediction, Williams (2019)” value ([9]; Bayesian modeling, ref Williams et al. 2019) was “+VE”. The “Bayesian Machine Learning” value ([9]; In vitro Assay, ref Williams 2019) was “+VE”, the Cmax [10] was 6.39 µM and the fu [11] was 0.010. The “Assigned DILI category” value ([12]; Chen et al. 2016 or literature alignment, ref Chen et al. 2016) was 3, the “In vivo DILI” value ([12]; […]) was “+VE” and the “In vivo DILI” value ([12]; ref Albrecht 2019) was “+VE”. The “In vivo DILI” value ([12]; ref Aleo 2019) was “+VE”, the “In vivo DILI” value ([12]; ref Dawson 2012) was “+VE” and the “In vivo DILI” value ([12]; ref Garside 2014) was “+VE”. For the same compound, the “In vivo DILI” value ([12]; ref Gustafsson 2014) was “+VE”, the “In vivo DILI” value ([12]; ref Persson 2013) was “+VE” and the “In vivo DILI” value ([12]; ref Porceddu 2012) was “+VE”. The “In vivo DILI” value ([12]; ref Proctor 2017) was “+VE”, the “In vivo DILI” value ([12]; ref Schadt 2015) was “+VE” and the “In vivo DILI” value ([12]; ref Tolosa 2012) was “+VE”. The “In vivo DILI” value ([12]; ref Vorrink 2018) was “+VE”, the “In vivo DILI” value ([12]; ref Williams 2019) was “+VE” and the “In vivo DILI” value ([12]; ref Xu 2008) was “+VE”. The “Cytotoxicity PHH 48 hrs” value (PHH [13]) was “+VE”, the THLE-Null [14] was “+VE” and the THLE-Null/3A4 [14] was “-VE”. The “Cluster 1-6 +VE Assay” value [15] was “+VE”, the “in vitro data EC2<=1x Cmax” value [16] was “+VE” and the “in vitro data EC20<=2uM” value [16] was “+VE”. The “Inhibition of rBsep cutoff<1& cmax u>.2” value (rBsep) was “+VE”, the “Inhibition of rBsep cutoff<3” value (rBsep) was “+VE” and the AC50 (hLiMTs [17]; read-out: ATP endpoint AC50) was 89.5 µM. For the same compound, the minimal effective concentration (hLiMTs [17]; read-out: ATP endpoint MEC) was 74 µM, the AC50 (hLiMTs [17]; read-out: HCS endpoint AC50) was 73.6 µM and the minimal effective concentration (hLiMTs [17]; read-out: HCS endpoint MEC) was 67.6 µM. For the same compound, the “DILI prediction hLiMTs (HCS-MEC)” value (hLiMTs [17]; [22]) was “+VE (MEC < 25 × Cmax.tot cut-off)”, the “hLiMTs <25x Avg Cmax ATP” value (hLiMTs [17]; hLiMTs, ATP endpoint, cut-off <25x Avg Cmax) was “+ve” and the “hLiMTs <100x Avg Cmaxu ATP” value (hLiMTs [17]; hLiMTs, ATP endpoint, cut-off <100x Avg Cmaxu) was “-ve”. The “hLiMTs <25x Avg Cmax HCS” value (hLiMTs [17]; hLiMTs, HCS endpoints, cut-off <25x Avg Cmax) was “+ve”, the “hLiMTs <100x Avg Cmaxu HCS” value (hLiMTs [17]; hLiMTs, HCS endpoints, cut-off <100x Avg Cmaxu) was “-ve” and the “hLiMTs <25x Avg Cmax All” value (hLiMTs [17]; hLiMTs, all endpoints (ATP and HCS), cut-off <25x Avg Cmax) was “+ve”. The “hLiMTs Cmax max All” value (hLiMTs [17]; hLiMTs, all endpoints, Cmax max used) was “+ve”, the “hLiMTs Cmax min All” value (hLiMTs [17]; hLiMTs, all endpoints, Cmax min used) was “+ve” and the “hLiMTs <10 uM All” value (hLiMTs [17]; hLiMTs, all endpoints, cut-off <10 uM) was “-ve”. For the same compound, the “hLiMTs <100x Avg Cmaxu All” value (hLiMTs [17]; hLiMTs, all endpoints, cut-off <100x Avg Cmaxu) was “-ve”, the “HepaRG <25x Avg Cmax ATP” value (HepaRG spheroids; HepaRG, ATP endpoint, cut-off <25x Avg Cmax) was “+ve” and the “HepaRG <100x Avg Cmaxu ATP” value (HepaRG spheroids; HepaRG, ATP endpoint, cut-off <100x Avg Cmaxu) was “-ve”. The “HepaRG <25x Avg Cmax HCS” value (HepaRG spheroids; HepaRG, HCS endpoints, cut-off <25x Avg Cmax) was “+ve”, the “HepaRG <100x Avg Cmaxu HCS” value (HepaRG spheroids; HepaRG, HCS endpoints, cut-off <100x Avg Cmaxu) was “-ve” and the “HepaRG <25x Avg Cmax All” value (HepaRG spheroids; HepaRG, all endpoints (ATP and HCS), cut-off <25x Avg Cmax) was “+ve”. The “HepaRG Cmax max All” value (HepaRG spheroids; HepaRG, all endpoints, Cmax max used) was “+ve”, the “HepaRG Cmax min All” value (HepaRG spheroids; HepaRG, all endpoints, Cmax min used) was “+ve” and the “HepaRG <10 uM All” value (HepaRG spheroids; HepaRG, all endpoints, cut-off <10 uM) was “-ve”. For the same compound, the “HepaRG <100x Avg Cmaxu All” value (HepaRG spheroids; HepaRG, all endpoints, cut-off <100x Avg Cmaxu) was “-ve”, the AC50 (HepaRG spheroids; HepaRG, read-out: ATP endpoint AC50) was 28.8 µM and the minimal effective concentration (HepaRG spheroids; HepaRG, read-out: ATP endpoint MEC) was 25 µM. The AC50 (HepaRG spheroids; HepaRG, read-out: HCS endpoint AC50) was 33 µM, the minimal effective concentration (HepaRG spheroids; HepaRG, read-out: HCS endpoint MEC) was 22 µM and the “DILI prediction HepaRG spheroids (HCS-MEC)” value (HepaRG spheroids; [22]) was “+VE (MEC < 25 × Cmax.tot cut-off)”.

— publication PMC7395068, “The evolution of strategies to minimise the risk of human drug-induced liver injury (DILI) in drug discovery and development” (Archives of Toxicology, 2020)
